Results taken from patent US7769423B2 (Duke University, priority 2002, dated 2010).

What was measured:
[1] = at physiological temperatures; Unger 1993; cited from earlier work
[2] = cited from earlier work
[3] = system: fibrosarcomas implanted in the flank of Fisher 344 rats; experiment: In vivo MRI signal enhancement and signal intensity ratio (SIR) in rats bearing flank fibrosarcomas, catheter hyperthermia
Protocol: Fibrosarcocomas were transplanted in the flank of fisher 344 rats and allowed to grow to 17-19 mm in diameter. Rats were anesthetized with pentobarbital (source/amount) and a 16 gauge catheter was placed through the center of the tumor. Heated water (56° C., 1.8 ml/s) was passed through the catheter to provided hyperthermia. During MRI scans, the heating water was doped with 0.25 M MnSO4 to prevent flow image artifacts. Gradient recalled echo was used with a Tr of 23 ms, Te of 1.4 ms, and flip angles of 5, 15, 30, 40, 50, 60 degrees for the initial T1 weighted image. Subsequent drug uptake scans were performed at a flip angle of 33°. 3D volume images, 12 slices 1 mm thick, were taken with a field of view of 6 cm with a pixel size of 234×234 μm. Four and signal image averaging was used for liposome and Gd-DTPA experiments yielding scan times of 1 min, 45 sec and 30 sec respectively.
1NEX image averaging was used for the first twenty minutes of liposome or Gd uptake. Subsequent images were taken at 4NEX for the remainder of the experiment (90-120 minutes).
The liposome formulations were studied in fibrosarcomas implanted in the flank of Fisher 344 rats. The center of the tumor was heated using a catheter through which hot was water circulated. […] Liposomes were then administered intravenously, followed by MR imaging.
In vivo drug relative concentrations were performed by signal intensity image analysis over regions of interest (ROI) within heated tumors. The white boxes present in FIGS. 2A, 2B and 2C indicate these ROIs. […] Muscle in the non-tumor bearing leg of the animal was used as a non-heated, normal tissue control.

fibrosarcoma (FSA-1) = experiment: Antitumor effect: time for tumors to reach five times the volume on the day of treatment; type: in vivo, rat
Protocol: Tumor model. […] The fibrosarcoma was transplanted subcutaneously in the flanks of 8-week-old female Fischer 344 rats (Charles River Laboratories, Wilmington, Mass., U.S.A.) under anesthesia using intraperitoneal ketamine (9 mg/kg body weight) and xylazine (10 mg/kg body weight). Tumors were allowed to grow for approximately 2 weeks to a diameter of 10-12 mm before treatment.
Each group of rats (except the control group) received an equivalent dose of 5 mg doxorubicin/kg body weight by intravenous injection and/or 1 hour of hyperthermia. Local hyperthermia was delivered by means of an 18-gauge catheter that was placed through the center of the tumor and through which heated water (˜50° C., 1.8 mL/s) was passed.
The remaining 6-7 rats in each treatment group were included in the survival analysis. […] Final images were taken after tumors cooled to room temperature. […] After therapy, the rats were monitored as they recovered from anesthesia. Tumor volumes were measured three times per week for 60 days or until the tumor volume reached five times the volume on the day of treatment. At these endpoints, the rats were killed by carbon dioxide asphyxiation. […] The five-times-the-initial-volume cutpoint was chosen based on guidelines from the institutional animal care and use committee. No rats were killed before the specified endpoints were reached.
Descriptive summary statistics are expressed as mean values with 95% confidence intervals, except for the time-to-five-times-tumor-volume data, which are expressed as median values with 95% confidence intervals. To avoid assuming a normal distribution, nonparametric or semi-parametric statistical methods were used. Group comparisons were conducted with the Kruskal-Wallis test for more than two groups and the Wilcoxon test for between-group differences. For the antitumor efficacy data, the primary endpoint (time to reach five times the original tumor volume) was analyzed by the Kaplan-Meier product-limit method, using the Wilcoxon rank test for between-group differences. […]

[4] = In vitro MRI T1 relaxivity measurements as a function of temperature and concentration; type: physicochemical; details: linear regression, in vitro samples, 2-T magnet
Protocol: Three control stock solutions of manganese sulfate (MnSO4.H2O), free DOX and MnSO4.H2O in a molar ratio of 0.902:1 (DOX:Mn), and MnSO4.H2O with thermally sensitive liposomes that were formed without the presence of MnSO4.H2O. These solutions, along with liposome solutions, were then diluted to concentrations from 0.25-8 mM. The solutions were placed in […] NMR tubes cut to a three-inch length.
All MRI experiments were performed at the Center for In vivo Microscopy at Duke University in a 2-T 30-cm bore diameter magnet (Signa, G.E. Medical Systems, Milwaukee, Wis.). […] Each experiment had six to eight sample tubes, which were contained within an exposed sample holder, and placed inside a 3.81 cm birdcage coil providing RF excitation. […]
Images that were obtained were analyzed by selecting a region of interest and measuring average intensity for each sample dilution. […]
To quantify the concentration of drug in vivo using MRI, in vitro experiments were performed to determine the concentration- and temperature-dependence of T1 shortening. These experiments measured signal intensity resulting from proton spin realignment to the bulk magnetic field after excitation from repetitive radio frequency pulses. […] MnSO4 liposome-DOX formulation measured over a range of drug concentrations (T=29.9° C.). […]

O=C([O-])CN(CCN(CC(=O)[O-])CC(=O)[O-])CCN(CC(=O)[O-])CC(=O)[O-].[Gd+3] [Gd-DTPA]
relaxivity [1]: approximately 44.5 (mM·sec·° C.)^−1 | fraction excreted in urine ([2]; in about 6 hours): 83%±14% | mean elimination half-life ([2]; in vivo): about 0.2±0.13 hours | time to reach SIR plateau in tumor-enhancing region ([3]; enhanced tumor region): ≤ 10 min | femoral vessel SIR value reached ([3]; femoral vein, normalized to non-heated muscle): 2.0 | time at which femoral vessel SIR value was reached ([3]; femoral vein, post injection): 10 min | MR signal enhancement pattern ([3]; without hyperthermia (HT)): Enhancement occurs in all tissues with a high degree of non-uniformity in the tumor

COc1cccc2c1C(=O)c1c(O)c3c(c(O)c1C2=O)C[C@@](O)(C(=O)CO)C[C@@H]3O[C@H]1C[C@H](N)[C@H](O)[C@H](C)O1 [free doxorubicin, doxorubicin]
tumor growth time / growth delay (fibrosarcoma (FSA-1); alone, without hyperthermia): statistically significantly longer tumor growth times than the saline control | complete tumor regression upon censoring at 60 days (fibrosarcoma (FSA-1); during / plus hyperthermia): one of the six rats | tumor growth time / growth delay (fibrosarcoma (FSA-1); with hyperthermia): statistically significantly longer tumor growth times than the saline control

O=S(=O)([O-])[O-].[Mn+2] [MnSO4, manganese sulfate]
intercept of relaxivity as a function of temperature (intercept±S.E.) [4]: 7.28 ± 0.12 mM/s | slope of relaxivity as a function of temperature (slope±S.E.) [4]: −0.082±0.003 (mM·sec·° C.)^−1
